Measured values taken from US10287253B2, “Substituted pyrimidines containing acidic groups as TLR7 modulators” (Apros Therapeutics, Inc., priority 2016, dated 2019).

What was measured:
[1] = biological target: human TLR7 (hTLR7) (Homo sapiens (Human), UniProt Q9NYK1); assay: HEK TLR7 assay (HEK-Blue hTLR7 cells, NF-kB/AP-1 SEAP reporter); assay type: cell-based; conditions: for EC50: HEK-Blue hTLR7 cells, 16 h incubation, SEAP read at 620-655 nm
Source text: HEK-Blue™ TLR7 cells were purchased from Invivogen (San Diego, Calif.). The following description was taken from the product information sheet.
“HEK-Blue™ hTLR7 cells are designed for studying the stimulation of human TLR7 (hTLR7) by monitoring the activation of NF-kB. HEK-Blue™ hTLR7 cells were obtained by co-transfection of the hTLR7 gene and an optimized secreted embryonic alkaline phosphatase (SEAP) reporter gene into HEK293 cells. The SEAP reporter gene is placed under the control of the IFN-b minimal promoter fused to five NF-kB and AP-1-binding sites. Stimulation with a TLR7 ligand activates NF-kB and AP-1 which induce the production of SEAP, which is detected by the HEK-Blue™ Detection cell culture medium.”
A typical assay protocol involved the following steps: • 1. Cells were cultured according to the product information sheet. • 2. 10 mM compound stock in DMSO were first diluted to 3 mM and then 3-fold serially diluted using DMSO to afford a 10-pt dilution. • 3. 3 μl of the diluted DMSO were added to 57 μl HEK-Blue™ Detection media for a further 20-fold dilution. • 4. 10 μl of the diluted compound in assay media were added into 40 μl cell culture (in HEK-Blue™ Detection media) in 384-well plate. Final cell concentration=8,000 cells per well. • 5. The plates were incubated at 37° C. in 5% CO2 for 16 h. SEAP was determined using a spectrophotometer at 620-655 nm.

[2] = Pharmacokinetics experiments: mouse liver-to-serum concentration (L:S); assay type: in vivo; conditions: BALB/c mice, 10 mg/kg p.o., 5 hour post dose
Description: BALB/c mice were dosed p.o. with 10 mg/kg compound formulated in 0.5% carboxy methycellulose+0.5% Tween-80 suspension. Mice were bled retro-orbitally at different time points post dose. Blood was processed into serum by centrifugation followed by protein precipitation, reverse-phase gradient elution and MRM detection via ESI+mass spectrometry to determine compound concentration. Animals were sacrificed after the final blood collection (5 hour), liver removed and flash frozen in liquid nitrogen for tissue PK analyses. The liver-to-serum concentration (L:S) at 5 hour post dose is one parameter for identifying compounds with potential enrichment in liver.
Mouse liver-to-serum concentration (L:S) table below provides results.

human TLR7 (hTLR7), sequence (Q9NYK1 27-1049): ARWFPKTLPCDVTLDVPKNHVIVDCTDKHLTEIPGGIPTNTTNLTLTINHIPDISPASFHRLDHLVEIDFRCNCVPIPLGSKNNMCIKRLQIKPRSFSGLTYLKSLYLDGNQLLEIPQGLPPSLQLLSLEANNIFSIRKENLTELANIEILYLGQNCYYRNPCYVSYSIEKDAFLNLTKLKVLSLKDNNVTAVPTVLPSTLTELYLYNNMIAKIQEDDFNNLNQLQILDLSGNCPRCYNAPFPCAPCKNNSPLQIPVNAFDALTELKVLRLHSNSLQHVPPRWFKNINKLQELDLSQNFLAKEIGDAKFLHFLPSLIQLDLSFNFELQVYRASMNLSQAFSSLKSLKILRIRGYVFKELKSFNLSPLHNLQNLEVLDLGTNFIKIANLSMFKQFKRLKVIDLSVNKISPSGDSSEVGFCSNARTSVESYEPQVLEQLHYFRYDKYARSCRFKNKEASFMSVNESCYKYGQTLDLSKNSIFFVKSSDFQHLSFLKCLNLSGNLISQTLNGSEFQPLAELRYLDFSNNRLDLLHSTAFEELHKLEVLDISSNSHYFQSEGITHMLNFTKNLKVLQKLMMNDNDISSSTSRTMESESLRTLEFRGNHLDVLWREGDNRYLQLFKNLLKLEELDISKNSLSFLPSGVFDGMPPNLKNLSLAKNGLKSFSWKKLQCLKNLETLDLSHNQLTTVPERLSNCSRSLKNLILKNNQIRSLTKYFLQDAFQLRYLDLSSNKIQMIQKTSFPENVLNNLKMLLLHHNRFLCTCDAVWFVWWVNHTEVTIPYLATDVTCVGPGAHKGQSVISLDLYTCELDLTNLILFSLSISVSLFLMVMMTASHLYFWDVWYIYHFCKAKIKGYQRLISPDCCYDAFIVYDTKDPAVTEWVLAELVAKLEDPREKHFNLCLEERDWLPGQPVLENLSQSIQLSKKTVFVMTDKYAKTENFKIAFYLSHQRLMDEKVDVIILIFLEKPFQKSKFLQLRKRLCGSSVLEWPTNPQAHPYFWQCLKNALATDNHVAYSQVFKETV

## CCCCNc1nc(N)nc(C)c1Cc1cc(C(C)(C)C(=O)O)ccc1OC [Compound 9, 2-(3-((2-amino-4-(butylamino)-6-methylpyrimidin-5-yl)methyl)-4-methoxyphenyl)-2-methylpropanoic acid]
[1]
  EC50: 100 to 1000 nM
[2]
  L:S at 5 hr (liver-to-serum concentration): A (A = >100 represents high liver-enrichment)

## CCCCNc1nc(N)nc(C)c1Cc1cc(C(C)(C)c2nn[nH]n2)ccc1OC [Compound 10, 5-(5-(2-(2H-tetrazol-5-yl)propan-2-yl)-2-methoxybenzyl)-N4-butyl-6-methylpyrimidine-2,4-diamine]
[1]
  EC50: 100 to 1000 nM
[2]
  L:S at 5 hr (liver-to-serum concentration): B (B = 10-100 represents moderate liver-enrichment)

## CCCCNc1nc(N)nc(C)c1Cc1cc(-c2nn[nH]n2)ccc1OC [Compound 11, N4-butyl-5-(2-methoxy-5-(2H-tetrazol-5-yl)benzyl)-6-methylpyrimidine-2,4-diamine]
[1]
  EC50: 100 to 1000 nM
[2]
  L:S at 5 hr (liver-to-serum concentration): A (A = >100 represents high liver-enrichment)

## CCCCNc1nc(N)nc(C)c1Cc1cc(P(=O)(O)O)ccc1OC [Compound 12, (3-((2-amino-4-(butylamino)-6-methylpyrimidin-5-yl)methyl)-4-methoxyphenyl)phosphonic acid]
[1]
  EC50: 100 to 1000 nM
[2]
  L:S at 5 hr (liver-to-serum concentration): B (B = 10-100 represents moderate liver-enrichment)

## CCCCNc1nc(N)nc(C)c1Cc1cc(C2(c3nn[nH]n3)CC2)ccc1OC [Compound 13, 5-(5-(1-(2H-tetrazol-5-yl)cyclopropyl)-2-methoxybenzyl)-N4-butyl-6-methylpyrimidine-2,4-diamine]
[1]
  EC50: 100 to 1000 nM
[2]
  L:S at 5 hr (liver-to-serum concentration): B (B = 10-100 represents moderate liver-enrichment)

## CCCCNc1nc(N)nc(CCC(=O)O)c1Cc1ccccc1OC [Compound 15, 3-(2-amino-6-(butylamino)-5-(2-methoxybenzyl)pyrimidin-4-yl)propanoic acid]
[1]
  EC50: 100 to 1000 nM
[2]
  L:S at 5 hr (liver-to-serum concentration): B (B = 10-100 represents moderate liver-enrichment)

## CCCCNc1nc(N)nc(C)c1Cc1cc(S(=O)(=O)O)ccc1OC [Compound 17, 3-((2-amino-4-(butylamino)-6-methylpyrimidin-5-yl)methyl)-4-methoxybenzenesulfonic acid]
[1]
  EC50: < 100 nM
[2]
  L:S at 5 hr (liver-to-serum concentration): B (B = 10-100 represents moderate liver-enrichment)

## CCCC[C@@H](CCO)Nc1nc(N)nc(C)c1Cc1cc(Cc2nn[nH]n2)ccc1OC [Compound 18, (S)-3-((5-(5-((2H-tetrazol-5-yl)methyl)-2-methoxybenzyl)-2-amino-6-methylpyrimidin-4-yl)amino)heptan-1-ol]
[1]
  EC50: < 100 nM
[2]
  L:S at 5 hr (liver-to-serum concentration): A (A = >100 represents high liver-enrichment)

## CCCC[C@@H](CC(=O)O)Nc1nc(N)nc(C)c1Cc1cc(Cc2nn[nH]n2)ccc1OC [Compound 20, (S)-3-((5-(5-((2H-tetrazol-5-yl)methyl)-2-methoxybenzyl)-2-amino-6-methylpyrimidin-4-yl)amino)heptanoic acid]
[1]; Compound 20 vs Compound 20C
  potency of (S)-enantiomer relative to (R)-enantiomer (Compound 20C) in the HEK-TLR7 assay: > 10 fold
[1]
  EC50: 100 to 1000 nM
[2]
  L:S at 5 hr (liver-to-serum concentration): A (A = >100 represents high liver-enrichment)

## CCCCNc1nc(N)nc(C)c1Cc1cc(B(O)O)ccc1OC [Compound 24, (3-((2-amino-4-(butylamino)-6-methylpyrimidin-5-yl)methyl)-4-methoxyphenyl)boronic acid]
[1]
  EC50: < 100 nM
[2]
  L:S at 5 hr (liver-to-serum concentration): B (B = 10-100 represents moderate liver-enrichment)

## CCCC[C@@H](CC(=O)O)Nc1nc(N)nc(CCC(=O)O)c1Cc1ccccc1OC [Compound 29, (S)-3-((2-amino-6-(2-carboxyethyl)-5-(2-methoxybenzyl)pyrimidin-4-yl)amino)heptanoic acid]
[1]
  EC50: 100 to 1000 nM
[2]
  L:S at 5 hr (liver-to-serum concentration): A (A = >100 represents high liver-enrichment)
